Measured values from article PMC3740683, “ML212: A small-molecule probe for investigating fluconazole resistance mechanisms in Candida albicans” (Beilstein Journal of Organic Chemistry, 2013).
pIC50: −log10 of the molar value. Values after ≈ are worked out from the molar mass of the structure shown.

Legend:
[1] = Secondary assay 3: fibroblast toxicity; format: cell-based; settings: mouse, NIH-3T3 fibroblasts, murine 3T3 fibroblasts
Experimental: (§1) 11) Read relative fluorescence intensity (RFU) of wells on a standard plate reader as […]
(§2) measure of relative fungal growth. EnVision (Perkin Elmer) plate reader settings: […]
Secondary assay 3: fibroblast toxicity
Clear, flat-bottom, black, 384-well plates (Corning Catalog no. 3712BC Lot no.
(§3) 35808016); geldanamycin (AG Scientific Catalog no. G-1047) 15 mM stock solution in […]
DMSO; fluconazole (Sequoia Research Ltd.) 2 mg/mL stock solution in PBS; Alamar […]
Blue (AG Scientific Catalog no. DAL1100, Lot no. 151016SA); PBS w/o calcium and […]
magnesium (Cellgro Catalog no. 21-040-CV)
Optimem medium (Invitrogen Catalog no. 31985-070; Lot no. 548536); 2.5% (v/v) fetal […]
bovine serum (Hyclone Catalog no.30071.03; Lot no. ARF26748); 1% (v/v) Pen/Strep […]
Test strain: NIH-3T3 mammalian fibroblasts (ATCC CRL No. 1658) […]
1) Plate cells in 384-well plates at 6,000 cells/well in 20 µL assay medium.
2) Incubate plates overnight at 37 °C under 5% CO2.
1) After overnight culture, pin compounds into wells at 100 nL/well using the CyBio […]
CyBi-Well pinning instrument.
2) After pinning compounds, add 20 µL of assay medium supplemented with […]
fluconazole to each well. […]
6) Read the relative fluorescence intensity (RFU) of wells on a standard plate reader as a measure of relative cell growth. EnVision (Perkin Elmer) plate reader […]
setup: Ex 544 nm, Em […], bandwidth12 nm, top read.

Solubility in PBS = format: physicochemical; settings: aqueous buffer
[2] = Plasma stability, human plasma; format: in vitro ADME; settings: 5 h incubation
[3] = system: Hsp90-dependent signaling pathway; test: Yeast-reporter assay, Hsp90-dependent signaling pathway; format: cell-based; settings: Saccharomyces cerevisiae
C. albicans CaCi-2 = test: Secondary assay 2: CaCi-2 in the absence of fluconazole; format: cell-based; settings: Candida albicans, CACI2; no fluconazole, 48 h incubation; read-out: IC50 against C. albicans in the absence of fluconazole
Experimental: 5) Then, pin 100 nL of test compound from compound plates into assay plates using a CyBi-Well pin tool.
6) Dispense 20 µL/well of culture into the assay media in all wells.
7) Incubate the plates in a humidified (90% humidity) Liconic incubator at 37 °C without agitation for 48 hours.
8) Dilute Alamar Blue 1:40 in Ca/Mg-free PBS.
9) To all plates, add 5 µL/well of the diluted Alamar Blue to plates to a final dilution […]
10) Incubate the plates for 2 hours.
11) Read the relative fluorescence intensity (RFU) of wells on a standard plate reader as a measure of relative fungal growth. EnVision (Perkin Elmer) plate reader setup: Ex 544 nm, Em 590 nm, bandwidth 12 nm, top read.
Secondary assay 2: CaCi-2 in the absence of fluconazole
Clear, flat-bottom, black 384-well plates (Corning Catalog no. 3712BC; Lot no.
as §3
2) Read OD 600 of 1 mL of fungal culture in a cuvette using a standard optical density reader (Eppendorf BioPhotometer Plus), with growth medium as a […]
measured) × (desired final volume of inoculum) × 0.3 = volume of fungal culture […]
this yields a calculated starting OD of the fungal inoculum of 0.00015. […]
as §1, §2

**Q.** Which IC50 at 48 h [1] does the source give for `COC(=O)Cn1nc(-c2cccc(OC)c2)c2ccccc21` [Compound 36] here?
**A.** > 26 µM

**Q.** And the solubility (Solubility in PBS)?
**A.** 55 µM (≈ 16.3 µg/mL)

**Q.** And the “remaining after incubation in plasma” value [2]?
**A.** < 10%

**Q.** What about the pIC50 [3] of the same compound?
**A.** < 4.59

**Q.** And the pIC50 (C. albicans CaCi-2)?
**A.** < 4.59
